{"source": "patent US8669088B2", "about": "“Enzyme associated with equol synthesis” (Otsuka Pharmaceutical Co., Ltd., priority 2007, dated 2014)", "molecules": {"B1": {"name": "E3 enzyme: polypeptide (SEQ ID NO: 13) having an activity to synthesize equol using tetrahydrodaidzein as a substrate (protein, listed as Lactococcus garvieae)", "chain": "MAEFDVEYDLVVVGGGASGKSAALIAAREGKRVVVLEKMPETGGLSMYAEGTAAFESSIQNELGTPRLSKYHFPTKQEGIEKFMGYSHQRANYDVVRAFVENSAETIDIYRDLGVVYKACDIAAEDDPNEVWTFHLPEGLGAHCQEVLLDAIQKLDVDIFTSTPAKELIIEDGAVVGVVAESDGEPLRVGGKAVILATGGMGSSPERIFKYSWFAPAAYNMNTLTPLQNVGDGLDLALSAGADPTYITTCPILAAGGRDMTMDSQVGGAGVNPGVWINKTGRRFAAESVAENIGDIGTYYGKQPGGVVWSILSQADIDRLVAEGSEIAIGEFVVYHKPMERLPIELEAHLESGLVKKAGSFEELAALIDVPVDTFVATMADYNEACEKGYDDAFMKKPQYLRPMVEGPFYAIPLATGTMGSAGGIRINGNMQVVDADYNAIPGLYAVGLDATGLYGDSYNMEVPGAANGFAHTSGRIAARHAISTM"}}, "key": {"[1]": {"tested_on": "disrupted cell material of Lactococcus 20-92 strain", "assay": "Enzyme reaction with disrupted cell material of Lactococcus 20-92 strain as enzyme source (Example B1)", "assay_type": "biochemical", "conditions": "10 μg/mL substrate; 2 mM NADPH, 2 mM NADH; 37° C., 2 hours; HPLC (FIG. 10)", "procedure": "The Lactococcus 20-92 strain cells preserved at −80° C. were quickly thawed. The cells were suspended by tapping, and centrifuged at 4° C. (8,000 rpm×5 min) using a centrifuge VC-960 (Taitec). After removing the supernatant, 0.1 M potassium phosphate buffer/1 mM PMSF (phenylmethanesulfonyl fluoride)/2 mM DTT (dithiothreitol)/5 mM sodium hydrosulfite (pH 7.0) were added to obtain a cell suspension. The cell suspension was placed in a 2 ml tube prepared to include zirconia-silica beads (about 0.8 mL, 0.1 mm, 1 lb; Wakenyaku Co., Ltd.), and the tube was charged with 0.1 M potassium phosphate solution/1 mM PMSF/2 mM DTT/5 mM sodium hydrosulfite (pH 7.0) to fill the tube almost completely. For disruption, the tube was closed and kept on ice, where a cycle of 6,500 rpm×20 sec centrifugation and ice-cooling was repeated four times using FastPrep®-FP100A (Thermo Electron Corporation). The resulting disrupted cell material was used as an enzyme source in an enzyme reaction.\nA 1 mL enzyme reaction mixture of the composition below, containing 0.1 ml of the disrupted cell material obtained in (1) was prepared, and the mixture was incubated at 37° C. for 2 hours. After incubation, 3 mL of ethyl acetate was added to the resulting enzyme reaction product for extraction. The product was dried to prepare a sample for HPLC analysis. […]"}, "[2]": {"tested_on": "Lactococcus 20-92 strain", "assay": "Equol biosynthetic activity of bacterial cell from tetrahydrodaidzein (Example C1)", "assay_type": "cell-based", "conditions": "10 μg/mL in medium; 37° C., 18 hours, anaerobic; HPLC (FIG. 20)", "procedure": "A Lactococcus 20-92 strain (FERM BP-10036) was inoculated in a tetrahydrodaidzein-containing amplification liquid medium (a modified GAM bouillon medium (NISSUI PHARMACEUTICAL CO., LTD.) to which cis- or trans-tetrahydrodaidzein (organically-synthesized by Otsuka Pharmaceutical Co., Ltd.: see Reference Example B1) was added in an amount of 10 μg/mL), and the culture was incubated at 37° C. for 18 hours under anaerobic conditions (using BBL Gas Pack systems). After incubation, 1 mL of the culture was immediately placed in a glass centrifuge tube with cap, and 3 mL of ethyl acetate was added thereto for extraction. The product was dried to prepare a sample for HPLC analysis. As the standard solution for HPLC analysis, a mixed solution of daidzein (2 μg/mL; Funakoshi Corporation), equol (2 μg/mL; Funakoshi Corporation), dihydrodaidzein (2 μg/mL; Trend Research Chemicals Inc.), cis-tetrahydrodaidzein and trans-tetrahydrodaidzein (2 μg/mL; both chemically-synthesized by Otsuka Pharmaceutical Co., Ltd.) was used."}, "[3]": {"tested_on": "dihydrodaidzein", "assay": "Tetrahydrodaidzein biosynthesis activity in centrifuged supernatant of disrupted cell material and NADH or NADPH dependency (Example B2)", "assay_type": "biochemical, Lactococcus 20-92 strain", "conditions": "centrifuged supernatant of disrupted cells; 37° C., 2 hours; HPLC (FIG. 11)", "procedure": "The frozen cells were thawed and centrifuged at 4° C. for 15 minutes (5,000×G). The pellet was used in the test below. First, the pellet (wet weight 2.7 g) was suspended in 10 ml of a 0.1 M phosphate-potassium solution containing 1 mM PMSF and 5 mM sodium hydrosulfite. After preheating at 37° C. for 5 minutes, lysozyme was added in an amount of 100 mg per gram of the pellet (wet weight) to cause a reaction at 37° C. for 1.5 hours. Then, an equivalent amount of 0.1 M dipotassium phosphate solution was added to the reaction mixture, and the mixture was vigorously agitated with a vortex mixer after adding zirconia-silica beads (3 ml). The cells were then disrupted with a sonicator (Branson Sonifier Cell Disruptor 200) (3 cycles of a 5-minute sonication and a 2-minute rest). The disrupted cell suspension was centrifuged at about 10,000×G for 15 minutes to obtain a supernatant, which was then used as an enzyme source. An enzyme reaction mixture of the composition below was prepared, and was incubated at 37° C. for 2 hours. After incubation, 5 mL of ethyl acetate was added to the enzyme reaction product for extraction. Then, the product was dried to prepare a sample for HPLC analysis. [table]"}, "[4]": {"tested_on": "dihydrodaidzein synthesis enzyme gene", "assay": "Induction of expression of dihydrodaidzein synthesis enzyme gene by daidzein, RT-PCR (Example A7)", "assay_type": "cell-based, Lactococcus 20-92 strain", "conditions": "10 mg/L daidzein in modified GAM broth, eight hours, 37° C., anaerobic; RT-PCR (FIG. 6)", "procedure": "Sealed Lactococcus 20-92 strain kept at 4° C. was incubated for eight hours in a modified GAM broth culture medium, that contains 10 mg/L daidzein (Funakoshi Co., Ltd.) or no daidzein, at 37° C. under an anaerobic condition. 25 mL of the culture solution was transferred to a 50 mL tube, and centrifuged for ten minutes at 3500 rpm, 4° C. The culture medium was removed by decantation and cells were collected. The collected cells were immediately frozen by liquid nitrogen. Then, the entire RNA was extracted and purified using 1 mL of TRIzol solution (Invitrogen) according to the instruction. The purified entire RNA was processed by DNase I (Invitrogen) to remove the genome DNA, and used for synthesis of first-strand cDNA.\nFrom 2 μg of the entire RNA thus processed by DNaseI, the first-strand cDNA (reverse transcription) was synthesized using SuperScript® First-Strand Synthesis System for RT-PCR (Invitrogen). The synthesis of the first-strand cDNA was carried out using Random Hexamer mix as an extension primer according to the instruction. […] The final reaction liquid was used as a template for RT-PCR.\nThe dihydrodaidzein synthesis enzyme gene was amplified through RT-PCR using the four final reaction products as detailed in (2) of the present Example as templates. The expression amounts were compared with each other. […]"}, "[5]": {"tested_on": "daidzein", "assay": "Dihydrodaidzein biosynthesis activity in centrifuged supernatant of disrupted cell material and coenzyme dependency (Example A1)", "assay_type": "biochemical, Lactococcus 20-92 strain", "conditions": "supernatant of disrupted cells; 37° C., 2 hour; HPLC (FIG. 1)", "procedure": "The frozen cells (67 mL bottle×2) were thawed, and centrifuged at 4° C. at 8,000 rpm for 10 minutes. The pellet was used in the test below. First, the pellet was suspended in 2 ml of a 0.1 M phosphate-potassium solution containing 1 mM PMSF (Wako Pure Chemical Industries, Ltd.), 2 mM DTT (Wako Pure Chemical Industries, Ltd.) and 5 mM sodium hydrosulfite (Wako Pure Chemical Industries, Ltd.). The suspension was supplied to two 2 ml tubes with screw caps (Assist) and pre-supplemented with […] zirconia/silica beads (BioSpec Products, Inc.). The cells were disrupted using FastPrep® FP100A (Thermo ELECTRON CORPORATION) (6500 rpm, 10 seconds, ice cooling×8). The resulting liquid was centrifuged to obtain supernatant. The suspension of disrupted cell was centrifuged at about 10,000 rpm at 4° C. for 10 minutes to obtain a supernatant, which was then diluted to 4.5 mL with 0.1 M potassium phosphate solution containing 1 mM PMSF, 2 mM DTT and 5 mM sodium hydrosulfite. This was used as an enzyme source.\nAn enzyme reaction mixture of the composition below was prepared, and the mixture was incubated at 37° C. for 2 hour. After incubation, 3 mL of ethyl acetate was added to the enzyme reaction mixture for extraction. After drying, the extract was dissolved by the mobile phase (eluent). The dissolved product was analyzed by HPLC. […]"}, "[6]": {"tested_on": "tetrahydrodaidzein", "assay": "Enzyme property of E3 enzyme (equol synthesis using tetrahydrodaidzein as a substrate)", "assay_type": "biochemical", "procedure": "Regarding polypeptides (Cb) and (Cc), the activity to synthesize equol using tetrahydrodaidzein as a substrate can be confirmed as follows. First, a polypeptide of interest is added to a substrate solution of the composition below at a concentration of 0.001 mg/mL. The solution is then incubated at 37° C. for 2 hours to check for the presence or absence of equol in the solution. The presence of equol in the solution after incubation is used as an indicator of the polypeptide's activity to synthesize equol using tetrahydrodaidzein as a substrate. Since E3 polypeptide has an enzyme activity to synthesize equol using tetrahydrodaidzein as a substrate, E3 polypeptide is also referred to as E3 enzyme. The optimal temperature of E3 enzyme is in the vicinity of about 23 to 37° C., and the optimal pH is 4.5."}}, "data": [{"molecule": "Oc1ccc(C2COc3cc(O)ccc3C2O)cc1", "note": "(stereo not drawn) [cis-tetrahydrodaidzein]", "values": [{"measurement": "production of equol from tetrahydrodaidzein by enzyme reaction", "setting": "[1]", "value": "equol was produced"}, {"measurement": "equol biosynthesis from tetrahydrodaidzein by bacterial culture", "setting": "[2]", "value": "activity to biosynthesize equol"}]}, {"molecule": "NC(=O)C1=CN([C@@H]2O[C@H](COP(=O)(O)OP(=O)(O)OC[C@H]3O[C@@H](n4cnc5c(N)ncnc54)[C@H](OP(=O)(O)O)[C@@H]3O)[C@@H](O)[C@H]2O)C=CC1", "note": "[NADPH]", "values": [{"measurement": "coenzyme dependency of the conversion of dihydrodaidzein into tetrahydrodaidzein", "setting": "[3]", "value": "much more strongly"}]}, {"molecule": "O=c1c(-c2ccc(O)cc2)coc2cc(O)ccc12", "note": "[daidzein, 4′,7-dihydroxy isoflavone]", "values": [{"measurement": "expression of mRNA of dihydrodaidzein synthesis enzyme gene", "setting": "[4]", "value": "induced the expression of mRNA"}]}, {"molecule": "NC(=O)C1=CN([C@@H]2O[C@H](COP(=O)(O)OP(=O)(O)OC[C@H]3O[C@@H](n4cnc5c(N)ncnc54)[C@H](O)[C@@H]3O)[C@@H](O)[C@H]2O)C=CC1", "note": "[NADH]", "values": [{"measurement": "coenzyme dependency of the conversion of daidzein into dihydrodaidzein", "setting": "[5]", "value": "dependent"}, {"measurement": "coenzyme dependency of the conversion of dihydrodaidzein into tetrahydrodaidzein", "setting": "[3]", "value": "dependent"}]}, {"molecule": "B1", "values": [{"measurement": "optimal pH of E3 enzyme", "setting": "[6]", "value": 4.5}, {"measurement": "reverse reaction of E3 enzyme", "setting": "[6]", "value": "synthesize tetrahydrodaidzein from equol"}]}]}
